Columns and labels:
[1] = system: aphasia after cerebrovascular accidents; details: acute phase after cerebrovascular accidents, combination use of speech therapy; cited from earlier work
[2] = 60 g/day for gait disturbance of cerebellar degeneration; Movement Disorder, 2003, 18, pp. 457-459; cited from earlier work
[3] = Acute toxicity; details: in vivo
Text: Acute toxicity of the compound represented by formula (I) was examined and it has been confirmed that this is a compound having high safety.

NC(=O)CN1CCCC1=O [piracetam, 2-oxo-1-pyrrolidineacetamide]
therapeutic effect on aphasia [1]: therapeutic effect of piracetam is found
safety [2]: no problem on its safety
acute toxicity [3]: high safety

— US7479506B2, “Agent or method for treating severe aphasia in cerebrovascular accident chronic stage” (priority 2003, dated 2009)
